# Laboratory results from patent US20050221411A1, “Interaction of NMDA receptor with the protein tyrosine phosphatase step in psychotic disorders” (AGY Therapeutics, Inc., priority 2003, published 2005).
# “Also recorded” adds a separate entry of the source.
# Experiments:
# GABAA receptor b subunit = assay: Surface expression of GABAA receptor b subunit in neurons (biotinylation, Western blot); format: cell-based; conditions: versus RNAi-Scrambled
# Description: (§1) Interfering RNA molecules were introduced into neurons by AMAXA nucleofection. To specifically knockdown STEP the oligo used had the sequence 5′-[…]-3′, a control siRNA that is predicted not to knock down levels of any gene products (sequence 5′-[…]-3′ was also used (Dharmacon, Lafayette, Colo.). Interfering RNA molecules were introduced into neurons using the AMAXA nucleofection technique (AMAXA, Gaithersburg, Md.) using the manufacturers protocol. Neurons were allowed to grow in culture for 3-4 days prior to experimental procedures.
# (§2) Neurons were washed with ice cold PBS. Sulfo-NHS-LC-Biotin (Pierce Biotechnology, Rockford, Ill.) was dissolved at 1.5 mg/ml in ice cold PBS and incubated with the cells for 1 hour at […]. Excess biotin was washed off the cells with ice cold PBS and cells lysed and harvested as above. […] of protein lysate was incubated with 100 μl of neutravadin agarose slurry (Pierce Biotechnology) overnight at […]. The complexes were washed thoroughly and proteins eluted from the beads by resuspension in SDS loading buffer and boiling for 10 mins. Proteins were loaded on 8% Tris-gicine gels and separated by SDS-PAGE. Western blotting was performed by standard means using the indicated antibodies.
# STEP61 = assay: Knockdown of STEP protein by RNAi in cultured cortical neurons (Western blot); format: cell-based, rat
# Description: Single stranded interfering RNA molecules (RNAi) were designed to be complementary to the sequence of STEP by standard means. The sequence used was 5′ AAACAUGCGAACAGUAUCAGU 3′. A standard scrambled RNA molecule of sequence 5′-CAG TCG CGT TTG CGA CTG G-3′ was used as a control. Dissociated cortical neurons were prepared from E18 rat embryos by standard protocols. The dissociated neurons were mixed with 90 ul of rat Nucleofector solution to give a final concentration of 4.8×10^6 cells/90 ul. The cells were mixed with 20 ug of RNAi and transferred to an electroporation cuvette. Using an AMAXA Nucleofector cells were electroporated using standard settings. Cells were transferred from the electroporation cuvette to poly-D-lysine coated 96 well plates for calcium flux assays or 6 well plates for Western blotting procedures and grown in standard neuronal media at 37° C. with 5% CO2 for 4 days.
# Knockdown of endogenous STEP protein levels was visualized by Western blotting. Four days after electroporation cells were harvested and lysed with lysis buffer (150 mM NaCl, 50 mM Tris pH 7.6, 1% triton, in the presence of a protease inhibitor cocktail and 1 mM sodium orthovanadate) on ice. […] Levels of STEP protein were determined by Western blotting using anti-STEP antibodies (FIG. 6).
# NMDA receptors = assay: NMDA mediated calcium influx in cultured cortical neurons after RNAi (FLEXstation); format: cell-based, rat; conditions: 1 μM NMDA, four days after transfection, versus scrambled RNA molecule
# [1] = tested on: GluR1 subunit of AMPA receptors; assay: Surface expression of AMPA receptor GluR1 subunit in neurons (biotinylation, Western blot); format: cell-based; conditions: versus RNAi-Scrambled
# Description: as §1, §2
# [2] = tested on: NMDA receptors (NR1, NR2A, NR2B); assay: Surface expression of NMDA receptor subunits in neurons (biotinylation, Western blot); format: cell-based
# Description: as §1, §2
# EGF receptors = assay: Surface expression of EGF receptors in neurons (biotinylation, Western blot); format: cell-based; conditions: versus RNAi-Scrambled
# Description: as §1, §2
# [3] = tested on: NMDA receptor / ERK phosphorylation; assay: NMDAR mediated ERK phosphorylation in cultured cortical neurons (Western blot); format: cell-based
# Description: […] SDS-PAGE was performed and western blotting used to detect ERK phosphorylation levels.
# ERK phosphorylation in cultured cortical neurons (10-13 division) can be elicited by activation of NMDARs.
compound,measurement,setting,value
"5′ AAACAUGCGAACAGUAUCAGU 3′ (guide AAACAUGCGAACAGUAUCAGU; siRNA; RNA, backbone and methylation of C not given here; single-stranded interfering RNA) [RNAi-STEP]",surface levels of the GABAA receptor b subunit,GABAA receptor b subunit,unaffected
same,levels of STEP61 protein,"STEP61; cultured cortical neurons, four days after transfection, versus scrambled RNA molecule",lower levels of STEP61 protein
same,STEP levels in the total protein lysate,"STEP61; neurons, AMAXA nucleofection, relative to RNAi-Scrambled",knocked down
same,Ca influx elicited by application of NMDA,NMDA receptors,increase in NMDA receptor mediated Ca influx
same,Ca influx elicited by application of NMDA,NMDA receptors; listed as inhibitory RNA to STEP,larger NMDA response
same,surface levels of the GluR1 subunit of AMPA receptors,[1],unaffected
same,total levels of each subunit,[2]; RNAi-STEP or RNAi-Scrambled,the same
same,levels of surface NR1,[2]; versus RNAi-Scrambled,increased
same,levels of surface NR2A,[2]; versus RNAi-Scrambled,increased
same,levels of surface NR2B,[2]; versus RNAi-Scrambled,increased
same,surface levels of EGF receptors,EGF receptors,unaffected
"N[C@H](CCCP(=O)(O)O)C(=O)O [D-APV, D-2-amino-5-phosphonopentanoic acid]",NMDA stimulated ERK phosphorylation,"[3]; D-APV 200 μM, stimulation with 100 μM NMDA for 5 minutes",blocked; also recorded: inhibits
"CN[C@H](CC(=O)O)C(=O)O [NMDA, N-methyl-D-aspartate]",ERK phosphorylation levels,"[3]; 100 μM NMDA for 5 minutes, cultured cortical neurons (10-13 division)",significant ERK phosphorylation; also recorded: significantly increased
